Data as given in ChEMBL document CHEMBL5465560, “Selectivity Literature for EUbOPEN Chemogenomic Library” (2024).

Assays:
[1] = biological target: Tyrosine-protein kinase Fer (Homo sapiens) (UniProt P16591); experiment: Selectivity interaction (KinomeScan (DiscoverX)) EUB0000045b FER
[2] = biological target: T1, Serine/threonine-protein kinase TNNI3K (Homo sapiens) (UniProt Q59H18); experiment: Selectivity interaction (KinomeScan (DiscoverX)) EUB0000045b TNNI3K
T1 sequence (whole entry): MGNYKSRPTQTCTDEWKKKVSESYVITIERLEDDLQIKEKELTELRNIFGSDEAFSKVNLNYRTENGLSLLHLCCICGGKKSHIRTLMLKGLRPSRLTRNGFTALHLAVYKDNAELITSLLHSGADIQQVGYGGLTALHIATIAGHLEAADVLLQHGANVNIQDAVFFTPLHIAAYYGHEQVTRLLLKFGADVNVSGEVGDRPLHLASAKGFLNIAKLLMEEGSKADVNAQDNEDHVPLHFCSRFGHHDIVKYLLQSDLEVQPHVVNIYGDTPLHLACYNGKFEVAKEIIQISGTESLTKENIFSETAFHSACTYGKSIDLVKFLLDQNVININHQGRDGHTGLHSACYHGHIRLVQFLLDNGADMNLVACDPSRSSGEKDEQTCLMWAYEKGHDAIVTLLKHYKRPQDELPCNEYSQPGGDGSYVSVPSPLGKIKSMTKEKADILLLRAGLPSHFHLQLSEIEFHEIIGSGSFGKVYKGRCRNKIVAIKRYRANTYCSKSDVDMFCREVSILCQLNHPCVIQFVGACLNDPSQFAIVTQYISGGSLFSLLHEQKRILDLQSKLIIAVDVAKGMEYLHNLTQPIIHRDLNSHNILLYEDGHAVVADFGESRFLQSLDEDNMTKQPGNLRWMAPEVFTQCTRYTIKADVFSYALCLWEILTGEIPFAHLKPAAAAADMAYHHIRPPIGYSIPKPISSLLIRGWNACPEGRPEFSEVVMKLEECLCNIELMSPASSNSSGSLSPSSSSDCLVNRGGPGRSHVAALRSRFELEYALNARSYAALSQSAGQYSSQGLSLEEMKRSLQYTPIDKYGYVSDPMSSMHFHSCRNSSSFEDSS

[3] = biological target: Receptor-interacting serine/threonine-protein kinase 2 (Homo sapiens, UniProt O43353); conditions: at 10 µM
Chain of Receptor-interacting serine/threonine-protein kinase 2 (O43353 whole entry): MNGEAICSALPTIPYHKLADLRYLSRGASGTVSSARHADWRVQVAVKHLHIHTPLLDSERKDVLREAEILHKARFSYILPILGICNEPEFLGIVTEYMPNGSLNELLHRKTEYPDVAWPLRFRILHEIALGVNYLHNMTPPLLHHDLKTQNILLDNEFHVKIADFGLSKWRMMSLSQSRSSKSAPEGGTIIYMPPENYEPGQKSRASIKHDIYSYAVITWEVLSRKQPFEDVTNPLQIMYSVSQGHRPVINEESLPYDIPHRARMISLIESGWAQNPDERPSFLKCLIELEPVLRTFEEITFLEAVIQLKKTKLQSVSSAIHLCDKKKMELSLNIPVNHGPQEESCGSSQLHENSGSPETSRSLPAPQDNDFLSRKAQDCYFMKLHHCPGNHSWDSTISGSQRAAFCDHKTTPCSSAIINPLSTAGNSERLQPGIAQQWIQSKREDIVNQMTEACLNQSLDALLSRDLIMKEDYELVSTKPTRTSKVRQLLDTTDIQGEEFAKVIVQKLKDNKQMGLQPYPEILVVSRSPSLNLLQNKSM

[4] = biological target: T2, Serine/threonine-protein kinase DCLK2 (Homo sapiens) (UniProt Q8N568); experiment: Selectivity interaction (Kinase panel (Invitrogen)) EUB0000639a DCLK2; conditions: at 200 nM
T2 sequence (whole entry): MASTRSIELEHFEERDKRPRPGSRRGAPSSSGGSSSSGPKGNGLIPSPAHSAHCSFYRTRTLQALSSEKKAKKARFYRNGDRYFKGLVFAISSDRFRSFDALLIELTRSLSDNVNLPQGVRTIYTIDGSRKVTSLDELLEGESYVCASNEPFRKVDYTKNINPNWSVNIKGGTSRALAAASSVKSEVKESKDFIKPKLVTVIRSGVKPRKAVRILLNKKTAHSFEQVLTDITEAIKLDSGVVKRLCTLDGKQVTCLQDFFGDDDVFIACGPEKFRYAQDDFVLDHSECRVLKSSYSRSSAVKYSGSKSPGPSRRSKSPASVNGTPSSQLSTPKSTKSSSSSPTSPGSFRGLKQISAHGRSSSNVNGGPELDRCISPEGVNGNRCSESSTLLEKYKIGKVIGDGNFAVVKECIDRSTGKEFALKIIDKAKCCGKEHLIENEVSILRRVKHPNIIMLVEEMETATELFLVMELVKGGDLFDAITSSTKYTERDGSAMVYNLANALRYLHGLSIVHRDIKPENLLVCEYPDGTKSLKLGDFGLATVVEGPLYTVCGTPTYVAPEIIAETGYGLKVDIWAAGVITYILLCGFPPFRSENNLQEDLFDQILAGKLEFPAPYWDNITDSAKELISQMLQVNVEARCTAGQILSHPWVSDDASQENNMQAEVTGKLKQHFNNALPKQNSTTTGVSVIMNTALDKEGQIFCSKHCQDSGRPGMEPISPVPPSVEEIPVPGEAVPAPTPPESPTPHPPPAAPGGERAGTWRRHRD

[5] = biological target: Tyrosine-protein kinase JAK1 (Homo sapiens, UniProt P23458); experiment: Selectivity interaction (Kinase panel (Invitrogen)) EUB0000639a JAK1; conditions: at 200 nM
Chain of Tyrosine-protein kinase JAK1 (P23458 whole entry, canonical isoform): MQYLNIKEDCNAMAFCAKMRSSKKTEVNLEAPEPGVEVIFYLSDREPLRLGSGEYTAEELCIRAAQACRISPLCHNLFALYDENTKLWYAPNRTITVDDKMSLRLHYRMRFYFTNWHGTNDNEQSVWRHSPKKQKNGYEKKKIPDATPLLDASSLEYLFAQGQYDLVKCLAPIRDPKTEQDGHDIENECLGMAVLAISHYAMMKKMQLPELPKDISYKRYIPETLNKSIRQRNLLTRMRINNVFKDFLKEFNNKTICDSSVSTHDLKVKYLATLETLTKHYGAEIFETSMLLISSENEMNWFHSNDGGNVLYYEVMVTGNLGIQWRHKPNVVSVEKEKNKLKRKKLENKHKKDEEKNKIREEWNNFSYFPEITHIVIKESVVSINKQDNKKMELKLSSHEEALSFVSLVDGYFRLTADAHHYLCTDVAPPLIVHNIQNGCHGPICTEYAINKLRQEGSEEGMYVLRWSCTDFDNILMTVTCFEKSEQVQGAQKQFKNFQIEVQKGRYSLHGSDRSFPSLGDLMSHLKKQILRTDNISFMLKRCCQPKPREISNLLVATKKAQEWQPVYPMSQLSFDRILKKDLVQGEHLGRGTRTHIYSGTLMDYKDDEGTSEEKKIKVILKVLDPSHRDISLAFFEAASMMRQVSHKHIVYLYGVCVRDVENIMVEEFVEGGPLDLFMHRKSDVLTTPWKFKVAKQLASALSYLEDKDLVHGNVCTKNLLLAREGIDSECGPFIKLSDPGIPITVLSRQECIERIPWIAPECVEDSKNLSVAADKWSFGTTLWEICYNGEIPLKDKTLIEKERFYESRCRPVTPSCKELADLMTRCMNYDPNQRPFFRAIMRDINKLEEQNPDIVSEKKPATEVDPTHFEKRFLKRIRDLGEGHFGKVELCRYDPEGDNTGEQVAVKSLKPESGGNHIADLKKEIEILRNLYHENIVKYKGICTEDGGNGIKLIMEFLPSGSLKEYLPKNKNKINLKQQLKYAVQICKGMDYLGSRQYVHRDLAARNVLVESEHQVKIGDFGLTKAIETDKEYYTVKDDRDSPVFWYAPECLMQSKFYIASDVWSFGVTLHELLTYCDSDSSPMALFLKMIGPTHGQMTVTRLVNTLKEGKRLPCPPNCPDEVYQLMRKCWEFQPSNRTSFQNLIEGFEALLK

[6] = biological target: Casein kinase I isoform gamma-2 (Homo sapiens) (UniProt P78368); experiment: Selectivity interaction (KinomeScan (DiscoverX)) EUB0000229b CSNK1G2; conditions: at 10 µM
Chain of Casein kinase I isoform gamma-2 (Homo sapiens) (P78368 whole entry, looked up, canonical isoform): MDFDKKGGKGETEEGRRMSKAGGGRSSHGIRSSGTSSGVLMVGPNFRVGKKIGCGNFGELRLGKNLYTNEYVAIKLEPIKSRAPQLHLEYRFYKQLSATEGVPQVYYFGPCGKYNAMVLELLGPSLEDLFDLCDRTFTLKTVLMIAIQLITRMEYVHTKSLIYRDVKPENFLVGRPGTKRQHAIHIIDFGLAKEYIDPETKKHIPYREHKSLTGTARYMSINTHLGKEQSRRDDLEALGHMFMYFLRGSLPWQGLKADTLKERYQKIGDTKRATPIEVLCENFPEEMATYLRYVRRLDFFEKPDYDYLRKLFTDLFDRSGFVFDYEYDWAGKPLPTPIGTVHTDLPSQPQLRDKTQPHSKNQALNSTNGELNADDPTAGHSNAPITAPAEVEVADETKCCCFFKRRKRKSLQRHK

[7] = biological target: T3, Ephrin type-A receptor 1 (Homo sapiens) (UniProt P21709); experiment: Selectivity interaction (KinomeScan (DiscoverX)) EUB0000666a EPHA1; conditions: at 10 µM
T3 sequence (whole entry): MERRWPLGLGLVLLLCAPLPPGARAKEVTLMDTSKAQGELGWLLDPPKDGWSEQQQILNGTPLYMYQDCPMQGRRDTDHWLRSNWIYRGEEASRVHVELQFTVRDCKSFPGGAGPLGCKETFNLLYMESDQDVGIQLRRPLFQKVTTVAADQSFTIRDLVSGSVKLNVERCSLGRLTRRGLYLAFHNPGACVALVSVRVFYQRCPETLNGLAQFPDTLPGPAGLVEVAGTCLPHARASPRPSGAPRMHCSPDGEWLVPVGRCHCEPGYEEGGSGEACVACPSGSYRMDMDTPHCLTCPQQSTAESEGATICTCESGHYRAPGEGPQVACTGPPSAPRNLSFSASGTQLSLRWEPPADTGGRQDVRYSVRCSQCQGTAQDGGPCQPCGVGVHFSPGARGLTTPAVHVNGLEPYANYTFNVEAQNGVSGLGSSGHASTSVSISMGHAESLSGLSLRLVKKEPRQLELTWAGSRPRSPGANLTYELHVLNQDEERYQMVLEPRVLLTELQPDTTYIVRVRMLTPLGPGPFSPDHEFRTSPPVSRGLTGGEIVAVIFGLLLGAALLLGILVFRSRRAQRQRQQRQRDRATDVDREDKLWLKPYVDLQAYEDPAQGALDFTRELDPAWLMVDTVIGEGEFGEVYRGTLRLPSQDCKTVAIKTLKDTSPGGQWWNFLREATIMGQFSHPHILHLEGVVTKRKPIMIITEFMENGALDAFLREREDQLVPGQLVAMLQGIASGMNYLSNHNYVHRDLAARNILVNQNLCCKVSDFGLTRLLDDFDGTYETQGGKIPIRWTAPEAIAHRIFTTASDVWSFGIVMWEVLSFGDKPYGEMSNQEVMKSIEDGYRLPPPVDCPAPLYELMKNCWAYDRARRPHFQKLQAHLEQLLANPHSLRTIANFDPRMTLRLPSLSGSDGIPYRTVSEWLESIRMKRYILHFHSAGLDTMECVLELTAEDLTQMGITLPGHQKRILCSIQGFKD

[8] = biological target: Ribosomal protein S6 kinase alpha-3 (Homo sapiens, UniProt P51812); experiment: Selectivity interaction (KinomeScan (DiscoverX)) EUB0000666a RPS6KA3; conditions: at 10 µM
Chain of Ribosomal protein S6 kinase alpha-3 (P51812 whole entry): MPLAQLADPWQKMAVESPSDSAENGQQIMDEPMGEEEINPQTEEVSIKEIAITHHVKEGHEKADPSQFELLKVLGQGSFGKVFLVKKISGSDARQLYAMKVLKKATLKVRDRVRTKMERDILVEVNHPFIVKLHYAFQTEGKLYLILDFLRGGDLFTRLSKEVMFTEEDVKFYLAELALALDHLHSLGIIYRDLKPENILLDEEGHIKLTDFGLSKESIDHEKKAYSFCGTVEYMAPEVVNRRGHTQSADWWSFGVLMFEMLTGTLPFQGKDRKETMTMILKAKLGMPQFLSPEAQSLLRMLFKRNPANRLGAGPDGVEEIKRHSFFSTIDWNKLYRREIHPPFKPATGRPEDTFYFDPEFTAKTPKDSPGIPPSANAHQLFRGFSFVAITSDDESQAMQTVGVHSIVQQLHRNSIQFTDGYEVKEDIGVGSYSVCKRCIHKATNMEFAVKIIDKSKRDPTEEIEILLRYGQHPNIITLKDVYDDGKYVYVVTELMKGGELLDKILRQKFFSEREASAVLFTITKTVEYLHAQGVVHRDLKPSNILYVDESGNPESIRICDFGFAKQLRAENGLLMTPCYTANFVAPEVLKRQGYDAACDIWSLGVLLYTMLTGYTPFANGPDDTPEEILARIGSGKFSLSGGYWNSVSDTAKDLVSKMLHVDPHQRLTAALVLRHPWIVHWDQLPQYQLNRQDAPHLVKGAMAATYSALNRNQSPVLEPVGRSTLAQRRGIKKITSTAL

Chain of Tyrosine-protein kinase Fer (Homo sapiens) (P16591 whole entry, looked up): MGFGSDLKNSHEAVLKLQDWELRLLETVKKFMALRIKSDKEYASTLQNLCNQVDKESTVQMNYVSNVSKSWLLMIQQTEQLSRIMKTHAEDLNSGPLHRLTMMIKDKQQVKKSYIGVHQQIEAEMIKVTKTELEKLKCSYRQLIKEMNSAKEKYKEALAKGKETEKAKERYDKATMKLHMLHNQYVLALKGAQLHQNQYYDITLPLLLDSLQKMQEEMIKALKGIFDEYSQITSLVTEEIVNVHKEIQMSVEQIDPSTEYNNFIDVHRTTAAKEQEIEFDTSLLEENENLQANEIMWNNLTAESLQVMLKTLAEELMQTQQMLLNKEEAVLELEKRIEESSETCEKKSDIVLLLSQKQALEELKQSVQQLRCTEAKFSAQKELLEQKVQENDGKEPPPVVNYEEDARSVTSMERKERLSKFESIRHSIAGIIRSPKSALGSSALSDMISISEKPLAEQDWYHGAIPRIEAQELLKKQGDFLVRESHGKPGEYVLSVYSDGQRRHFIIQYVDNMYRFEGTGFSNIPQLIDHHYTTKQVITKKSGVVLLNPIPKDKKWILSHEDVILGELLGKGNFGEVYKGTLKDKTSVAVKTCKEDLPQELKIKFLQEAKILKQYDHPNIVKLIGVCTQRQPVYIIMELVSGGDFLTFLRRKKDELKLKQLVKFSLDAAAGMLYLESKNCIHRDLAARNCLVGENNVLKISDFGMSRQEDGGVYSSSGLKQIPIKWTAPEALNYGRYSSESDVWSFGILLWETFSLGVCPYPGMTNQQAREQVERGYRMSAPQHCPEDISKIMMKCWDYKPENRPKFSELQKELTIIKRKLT

## C=CC(=O)Nc1cc(-n2c(=O)ccc3cnc4ccc(-c5ccc(NS(C)(=O)=O)cc5)cc4c32)ccc1C
[1]; at 1 µM
  % of control: 66%
[1]; at 10 µM
  % of control: 89%
[2]; at 1 µM
  % of control: 100%
[2]; at 10 µM
  % of control: 77%

## Cc1cc([C@@H](C)Nc2ccccc2C(=O)O)c2nc(N3CCOCC3)cc(=O)n2c1 [AZD-6482]
[3]
  % of control: 94%

## CC[C@@H]1[C@H](F)C(=O)N[C@@H]1COc1nccc2cc(C(N)=O)c(OC)cc12 [ZIMLOVISERTIB]
[4]
  % of inhibition: 24.9%
[5]
  % of inhibition: -0.407%

## COc1cc(N(C)c2ccnc3ccc(C(F)(F)F)cc23)cc(OC)c1OC
[6]
  % binding: 96%

## O=C(NOC[C@H](O)CO)c1ccc(F)c(F)c1Nc1ccc(I)cc1F
[7]
  % of control: 91%
[8]
  % of control: 100%
